Assay results reported in PubChem BioAssay AID256 (DTP/NCI, 2004).
Toxic doses and inconclusive results are not listed. Rule for the calls: active = survival T/C of 150% or more; inactive = T/C below 125% in these data.

Tested on: CD2F1 mice, L1210 leukemia ip, survival T/C
Assay: NCI In Vivo Anticancer Drug Screen. Data for tumor model L1210 Leukemia (intraperitoneal) in CD2F1 (CDF1) mice
Conditions: endpoint: mean survival time, higher = longer survival
Method in brief: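 Tumor-bearing mice (transplanted tumor) were split into treated and vehicle control groups, and the measured endpoint of each treated group was divided by that of its vehicle controls.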

[1] = dose: 100.0 mg/kg/injection, schedule: Q04DX003 (ip), vehicle: saline
[2] = dose: 200.0 mg/kg/injection, schedule: Q04DX003 (ip), vehicle: saline
[3] = dose: 400.0 mg/kg/injection, schedule: Q04DX003 (ip), vehicle: saline
[4] = dose: 100.0 mg/kg/injection, schedule: Q01DX009 (ip), vehicle: saline with Tween-80
[5] = dose: 100.0 mg/kg/injection, schedule: Q04DX003 (ip), vehicle: saline sonified
[6] = dose: 200.0 mg/kg/injection, schedule: Q01DX009 (ip), vehicle: saline with Tween-80
[7] = dose: 200.0 mg/kg/injection, schedule: Q04DX003 (ip), vehicle: saline sonified
[8] = dose: 400.0 mg/kg/injection, schedule: Q01DX009 (ip), vehicle: saline with Tween-80
[9] = dose: 400.0 mg/kg/injection, schedule: Q04DX003 (ip), vehicle: saline sonified
[10] = dose: 50.0 mg/kg/injection, schedule: Q01DX009 (ip), vehicle: Klucel (hydroxypropylcellulose) (HPC)
[11] = dose: 100.0 mg/kg/injection, schedule: Q01DX009 (ip), vehicle: Klucel (hydroxypropylcellulose) (HPC)
[12] = dose: 200.0 mg/kg/injection, schedule: Q01DX009 (ip), vehicle: Klucel (hydroxypropylcellulose) (HPC)
[13] = dose: 25.0 mg/kg/injection, schedule: Q01DX009 (ip), vehicle: saline with Tween-80
[14] = dose: 50.0 mg/kg/injection, schedule: Q01DX009 (ip), vehicle: saline with Tween-80
[15] = dose: 100.0 mg/kg/injection, schedule: Q01DX001 (ip), vehicle: saline with Tween-80
[16] = dose: 200.0 mg/kg/injection, schedule: Q01DX001 (ip), vehicle: saline with Tween-80
[17] = dose: 400.0 mg/kg/injection, schedule: Q01DX001 (ip), vehicle: saline with Tween-80
[18] = dose: 100.0 mg/kg/injection, schedule: Q04DX003 (ip), vehicle: saline with Tween-80
[19] = dose: 100.0 mg/kg/injection, schedule: Q04DX002 (ip), vehicle: saline with Tween-80

Measured: T/C

O=C(C[n+]1cccc(C(=O)Nc2ccccc2)c1)NCc1ccccc1
inactive: [1] 100 % of control | [2] 96 % of control | [3] 96 % of control

O=C1NC(=O)C(c2ccccc2)(c2ccc(O)cc2)N1 (stereo not given)
inactive: [4] 105 % of control | [5] 95 % of control | [6] 95 % of control | [7] 93 % of control | [8] 95 % of control | [9] 93 % of control

C=C1[C@@H](O)[C@]2(O)OC[C@@]34[C@H]1[C@@H](OC(=O)C(C)CC)C(=O)O[C@@H]3C[C@H]1C(C)=CC(=O)[C@@H](O)[C@]1(C)[C@@H]24 (stereo not given in full)
inactive: dose: 0.25 mg/kg/injection, schedule: Q01DX009 (ip), vehicle: saline with Tween-80 102 % of control | dose: 0.5 mg/kg/injection, schedule: Q01DX009 (ip), vehicle: saline with Tween-80 105 % of control | dose: 1.0 mg/kg/injection, schedule: Q01DX009 (ip), vehicle: saline with Tween-80 105 % of control | dose: 2.0 mg/kg/injection, schedule: Q01DX009 (ip), vehicle: saline with Tween-80 108 % of control

C=C(C)CSC(=S)NNc1ccccc1
inactive: dose: 25.0 mg/kg/injection, schedule: Q01DX009 (ip), vehicle: acetone 93 % of control | dose: 50.0 mg/kg/injection, schedule: Q01DX009 (ip), vehicle: acetone 96 % of control | dose: 100.0 mg/kg/injection, schedule: Q01DX009 (ip), vehicle: acetone 102 % of control

Nc1ncnc2[nH]c(=O)[nH]c12
inactive: dose: 12.5 mg/kg/injection, schedule: Q01DX009 (ip), vehicle: saline 101 % of control | dose: 25.0 mg/kg/injection, schedule: Q01DX009 (ip), vehicle: saline 114 % of control | dose: 50.0 mg/kg/injection, schedule: Q01DX009 (ip), vehicle: saline 105 % of control | [1] 108 % of control | [2] 112 % of control | [3] 108 % of control

CCC(C)CNCCO (stereo not given)
inactive: [1] 100 % of control | [2] 95 % of control

Cc1cc(C)c(O)c(C)c1
inactive: [10] 96 % of control | [11] 93 % of control | [12] 93 % of control

NC(=O)c1ncc(-c2ccc(Cl)cc2)[nH]c1=O
inactive: [5] 94 % of control | [7] 93 % of control | [9] 96 % of control

CC(=O)OCC(O)C(O)C(O)C(O)CO (stereo not given)
inactive: [4] 109 % of control | [6] 94 % of control | [8] 96 % of control

O=C(Oc1ccccc1)c1ccccc1O
inactive: [13] 105 % of control | [14] 109 % of control | [15] 101 % of control | [4] 105 % of control | [16] 89 % of control | [17] 95 % of control

COc1ccc(C(CO)=C(c2ccc(OC)cc2)c2ccc(OC)cc2)cc1
inactive: [18] 103 % of control | dose: 200.0 mg/kg/injection, schedule: Q04DX003 (ip), vehicle: saline with Tween-80 94 % of control | dose: 400.0 mg/kg/injection, schedule: Q04DX003 (ip), vehicle: saline with Tween-80 95 % of control

Nc1nc(N)c(-c2cccc(Cl)c2)c(COc2ccc([N+](=O)[O-])cc2)n1
inactive: [15] 94 % of control | [16] 92 % of control | [17] 93 % of control

CC1([N+](=O)[O-])COC(c2ccc(Cl)cc2)OC1 (stereo not given)
inactive: dose: 100.0 mg/kg/injection, schedule: Q04DX003 (ip), vehicle: Klucel (hydroxypropylcellulose) (HPC) 96 % of control | dose: 200.0 mg/kg/injection, schedule: Q04DX003 (ip), vehicle: Klucel (hydroxypropylcellulose) (HPC) 104 % of control

CCC(C)C1NC(=O)C(NC(=O)c2c3nc4c(C(=O)NC5C(=O)NC(C(C)CC)C(=O)N6CCCC6C(=O)N(C)CC(=O)N(C)C(C(C)C)C(=O)OC5C)cc([N+](=O)[O-])c(C)c4oc-3c(C)c(=O)c2N)C(C)OC(=O)C(C(C)C)N(C)C(=O)CN(C)C(=O)C2CCCN2C1=O (stereo not given)
inactive: dose: 0.05 mg/kg/injection, schedule: Q01DX009 (ip), vehicle: water 107 % of control | dose: 0.1 mg/kg/injection, schedule: Q01DX009 (ip), vehicle: water 116 % of control | dose: 0.2 mg/kg/injection, schedule: Q01DX009 (ip), vehicle: water 112 % of control | dose: 0.4 mg/kg/injection, schedule: Q01DX009 (ip), vehicle: water 94 % of control

Cn1nc(N)c2ncc(-c3ccc(Cl)cc3)nc21
inactive: dose: 100.0 mg/kg/injection, schedule: Q04DX003 (ip), vehicle: alcohol 91 % of control | dose: 200.0 mg/kg/injection, schedule: Q04DX003 (ip), vehicle: alcohol 89 % of control | dose: 400.0 mg/kg/injection, schedule: Q04DX003 (ip), vehicle: alcohol 91 % of control

COCC1OC2OC3C(COC)OC(OC4C(COC)OC(OC5C(COC)OC(OC6C(COC)OC(OC7C(COC)OC(OC8C(COC)OC(OC1C(O)C2O)C(O)C8O)C(O)C7O)C(O)C6O)C(O)C5O)C(O)C4O)C(O)C3O (stereo not given) (tested in a mixture with another compound)
inactive: dose: 25.0 mg/kg/injection, schedule: Q01DX009 (ip), vehicle: Klucel (hydroxypropylcellulose) (HPC) 98 % of control | [10] 98 % of control | [11] 94 % of control | [12] 96 % of control | dose: 400.0 mg/kg/injection, schedule: Q01DX009 (ip), vehicle: Klucel (hydroxypropylcellulose) (HPC) 93 % of control

O=C(CC(=O)c1ccccc1)c1ccccc1.O=C(CC(=O)c1ccccc1)c1ccccc1.[Pd]
inactive: dose: 3.13 mg/kg/injection, schedule: Q04DX003 (ip), vehicle: distilled water + Tween-80 96 % of control | dose: 6.25 mg/kg/injection, schedule: Q04DX003 (ip), vehicle: distilled water + Tween-80 98 % of control | dose: 12.5 mg/kg/injection, schedule: Q04DX003 (ip), vehicle: distilled water + Tween-80 94 % of control | dose: 25.0 mg/kg/injection, schedule: Q04DX003 (ip), vehicle: distilled water + Tween-80 98 % of control | dose: 50.0 mg/kg/injection, schedule: Q04DX003 (ip), vehicle: distilled water + Tween-80 93 % of control | dose: 100.0 mg/kg/injection, schedule: Q04DX003 (ip), vehicle: distilled water + Tween-80 89 % of control | dose: 200.0 mg/kg/injection, schedule: Q04DX003 (ip), vehicle: distilled water + Tween-80 107 % of control

CCOC(=O)CC/C=C/Cc1c(OC)c(C)c2c(c1OC(=O)NCc1ccc(N(CC)CC)cc1)C(=O)OC2
inactive: [19] 112 % of control

CN(C)C(=S)SCC(=O)O
inactive: [1] 95 % of control | [2] 96 % of control | [3] 102 % of control

COc1ccc(CCNC(C)Cc2ccc(OC)c(OC)c2)cc1OC (stereo not given)
inactive: dose: 12.5 mg/kg/injection, schedule: Q01DX009 (ip), vehicle: water 104 % of control | dose: 25.0 mg/kg/injection, schedule: Q01DX009 (ip), vehicle: water 101 % of control | dose: 50.0 mg/kg/injection, schedule: Q01DX009 (ip), vehicle: water 103 % of control

O=c1[nH]cnc2c1CN(c1ccccc1)C2
inactive: dose: 75.0 mg/kg/injection, schedule: Q01DX001 (ip), vehicle: saline 113 % of control | dose: 150.0 mg/kg/injection, schedule: Q01DX001 (ip), vehicle: saline 104 % of control

N#C/C(=C\C1CCCCC1Cl)C1CCC([N+](=O)[O-])CC1 (stereo not given)
inactive: [19] 91 % of control | dose: 400.0 mg/kg/injection, schedule: Q04DX002 (ip), vehicle: saline with Tween-80 87 % of control

COc1ccc(CC2=NCCN2)cc1
inactive: [13] 98 % of control | [14] 98 % of control | [4] 98 % of control

NC1C(O)C(N)C(O)C(O)C1O (stereo not given)
inactive: dose: 100.0 mg/kg/injection, schedule: Q01DX009 (ip), vehicle: saline sonified 90 % of control | dose: 200.0 mg/kg/injection, schedule: Q01DX009 (ip), vehicle: saline sonified 95 % of control | dose: 400.0 mg/kg/injection, schedule: Q01DX009 (ip), vehicle: saline sonified 95 % of control

COc1cc(C)c(O)c(C[P+](c2ccccc2)(c2ccccc2)c2ccccc2)c1
inactive: [13] 98 % of control | [14] 94 % of control | dose: 50.0 mg/kg/injection, schedule: Q04DX003 (ip), vehicle: saline with Tween-80 106 % of control | [18] 96 % of control

Cc1oc([N+](=O)[O-])c(C)c1C(=O)O
inactive: dose: 50.0 mg/kg/injection, schedule: Q04DX002 (ip), vehicle: saline with Tween-80 101 % of control | [19] 97 % of control | dose: 200.0 mg/kg/injection, schedule: Q04DX002 (ip), vehicle: saline with Tween-80 104 % of control
